In patent publication US12503461B2, “Pesticidally active heterocyclic derivatives with sulfur and sulfoximine containing substituents” (SYNGENTA CROP PROTECTION AG, priority 2019, dated 2025):

Assays:
Format in all cases: in vivo
[1] = system: Plutella xylostella (Diamond Back Moth); experiment: Example B4: Plutella xylostella (diamond back moth), treated artificial diet, eggs; conditions: 192 h, application rate of 200 ppm, 8 days after infestation, in comparison to untreated samples, read-out: effect in at least one of the two categories (mortality or growth inhibition)
Protocol: Example B4: Plutella xylostella (Diamond Back Moth
24-well microtiter plates with artificial diet were treated with aqueous test solutions prepared from 10′000 ppm DMSO stock solutions by pipetting. After drying, Plutella eggs were pipetted through a plastic stencil onto a gel blotting paper and the plate was closed with it. The samples were assessed for mortality and growth inhibition in comparison to untreated samples 8 days after infestation.

[2] = system: Frankliniella occidentalis (Western Flower Thrips); experiment: Example B3: Frankliniella occidentalis (western flower thrips), sprayed sunflower leaf discs; conditions: foliar, 168 h, application rate of 200 ppm, population of mixed ages, 7 days after infestation
Protocol: Example B3: Frankliniella occidentalis (Western Flower Thrips
Sunflower leaf discs were placed on agar in 24-well microtiter plates and sprayed with aqueous test solutions prepared from […] stock solutions. After drying the leaf discs were infested with a Frankliniella population of mixed ages. The samples were assessed for mortality 7 days after infestation.

[3] = system: Spodoptera littoralis (Egyptian Cotton Leaf Worm); experiment: Example B7: Spodoptera littoralis (Egyptian cotton leaf worm), sprayed cotton leaf discs, L1 larvae; conditions: foliar, 72 h, application rate of 200 ppm, 3 days after infestation, in comparison to untreated samples
Protocol: Example B7: Spodoptera littoralis (Egyptian Cotton Leaf Worm
Cotton leaf discs were placed onto agar in 24-well microtiter plates and sprayed with aqueous test solutions prepared from 10′000 ppm DMSO stock solutions. After drying the leaf discs were infested with five L1 larvae. The samples were assessed for mortality, anti-feeding effect, and growth inhibition in comparison to untreated samples 3 days after infestation. Control of Spodoptera littoralis by a test sample is given when at least one of the categories mortality, anti-feedant effect, and growth inhibition is higher than the untreated sample.

[4] = system: Euschistus heros (Neotropical Brown Stink Bug); experiment: Example B2: Euschistus heros (neotropical brown stink bug), sprayed soybean leaves, N2 nymphs; conditions: 120 h, application rate of 200 ppm, 5 days after infestation, in comparison to untreated samples, read-out: effect in at least one of the two categories (mortality or growth inhibition)
Protocol: Example B2: Euschistus heros (Neotropical Brown Stink Bug
Soybean leaves on agar in 24-well microtiter plates were sprayed with aqueous test solutions prepared from 10′000 ppm DMSO stock solutions. After drying the leaves were infested with N2 nymphs. The samples were assessed for mortality and growth inhibition in comparison to untreated samples 5 days after infestation.

[5] = system: Diabrotica balteata (Corn Root Worm); experiment: Example B1: Diabrotica balteata (corn root worm), sprayed maize sprouts on agar, L2 larvae; conditions: 96 h, application rate of 200 ppm, 4 days after infestation, in comparison to untreated samples, read-out: effect in at least one of the two categories (mortality or growth inhibition)
Protocol: Example B1: Diabrotica balteata (Corn Root Worm
Maize sprouts placed onto an agar layer in 24-well microtiter plates were treated with aqueous test solutions prepared from 10′000 ppm DMSO stock solutions by spraying. After drying, the plates were infested with L2 larvae (6 to 10 per well). The samples were assessed for mortality and growth inhibition in comparison to untreated samples 4 days after infestation.

[6] = system: Myzus persicae (Green Peach Aphid); experiment: Example B5: Myzus persicae (green peach aphid), feeding/contact activity, sprayed sunflower leaf discs; conditions: foliar, 144 h, application rate of 200 ppm, aphid population of mixed ages, 6 days after infestation
Protocol: Example B5: Myzus persicae (Green Peach Aphid). Feeding/Contact Activity
Sunflower leaf discs were placed onto agar in a 24-well microtiter plate and sprayed with aqueous test solutions prepared from 10′000 ppm DMSO stock solutions. After drying, the leaf discs were infested with an aphid population of mixed ages. The samples were assessed for mortality 6 days after infestation.

CCN=S(=O)(c1ccc2oc(-c3ncc(N=S(C)(C)=O)cc3S(=O)(=O)CC)nc2c1)C(F)(F)F (stereo not shown) [P2, [2-[5-[[dimethyl(oxo)-λ^6-sulfanylidene]amino]-3-ethylsulfonyl-2-pyridyl]-1,3-benzoxazol-5-yl]-ethylimino-oxo-(trifluoromethyl)-λ^6-sulfane]
≥ 80%: percent effect (mortality or growth inhibition) at 200 ppm [1] | mortality at 200 ppm [2] | percent control (mortality, anti-feeding effect or growth inhibition) at 200 ppm [3] | effect (mortality or growth inhibition) at 200 ppm [4] | percent effect (mortality or growth inhibition) at 200 ppm [5]

CCN=S(=O)(c1ccc2oc(-c3ncc(N(C)C(C)=O)cc3S(=O)(=O)CC)nc2c1)C(F)(F)F (stereo not drawn) [P3, N-[5-ethylsulfonyl-6-[5-[N-ethyl-S-(trifluoromethyl)sulfonimidoyl]-1,3-benzoxazol-2-yl]-3-pyridyl]-N-methyl-acetamide]
≥ 80%: percent effect (mortality or growth inhibition) at 200 ppm [1] | mortality at 200 ppm [6] | percent control (mortality, anti-feeding effect or growth inhibition) at 200 ppm [3] | percent effect (mortality or growth inhibition) at 200 ppm [5]

CCS(=O)(=O)c1cc(Oc2ccccn2)cnc1-c1nc2cc(S(=N)(=O)C(F)(F)F)ccc2o1 (stereo not shown) [P9, [2-[3-ethylsulfonyl-5-(2-pyridyloxy)-2-pyridyl]-1,3-benzoxazol-5-yl]-imino-oxo-(trifluoromethyl)-λ^6-sulfane]
≥ 80%: percent effect (mortality or growth inhibition) at 200 ppm [1] | mortality at 200 ppm [6] | percent control (mortality, anti-feeding effect or growth inhibition) at 200 ppm [3] | effect (mortality or growth inhibition) at 200 ppm [4] | percent effect (mortality or growth inhibition) at 200 ppm [5]

CCN=S(=O)(c1ccc2oc(-c3ncc(C4CC4)cc3S(=O)(=O)CC)nc2c1)C(F)(F)F (stereo not shown) [P11, [2-(5-cyclopropyl-3-ethylsulfonyl-2-pyridyl)-1,3-benzoxazol-5-yl]-ethylimino-oxo-(trifluoromethyl)-λ^6-sulfane]
≥ 80%: percent effect (mortality or growth inhibition) at 200 ppm [1] | mortality at 200 ppm [6] | percent control (mortality, anti-feeding effect or growth inhibition) at 200 ppm [3] | effect (mortality or growth inhibition) at 200 ppm [4] | percent effect (mortality or growth inhibition) at 200 ppm [5]

CCS(=O)(=O)c1cccnc1-c1nc2cc(S(=O)(=NC3CC3)C(F)(F)F)ccc2o1 (stereo not shown) [P13, cyclopropylimino-[2-(3-ethylsulfonyl-2-pyridyl)-1,3-benzoxazol-5-yl]-oxo-(trifluoromethyl)-λ^6-sulfane]
≥ 80%: percent effect (mortality or growth inhibition) at 200 ppm [1] | mortality at 200 ppm [6] | percent control (mortality, anti-feeding effect or growth inhibition) at 200 ppm [3] | percent effect (mortality or growth inhibition) at 200 ppm [5]

CCS(=O)(=O)c1cccnc1-c1nc2cc(S(=O)(=NC)C(F)(F)F)ccc2o1 (stereo not shown) [P18, [2-(3-ethylsulfonyl-2-pyridyl)-1,3-benzoxazol-5-yl]-methylimino-oxo-(trifluoromethyl)-λ^6-sulfane]
≥ 80%: percent effect (mortality or growth inhibition) at 200 ppm [1] | mortality at 200 ppm [6] | percent control (mortality, anti-feeding effect or growth inhibition) at 200 ppm [3] | effect (mortality or growth inhibition) at 200 ppm [4] | percent effect (mortality or growth inhibition) at 200 ppm [5]

CCN=S(=O)(c1ccc2oc(-c3ncccc3S(=O)(=O)CC)nc2c1)C(F)(F)F (stereo not shown) [P19, ethylimino-[2-(3-ethylsulfonyl-2-pyridyl)-1,3-benzoxazol-5-yl]-oxo-(trifluoromethyl)-λ^6-sulfane]
≥ 80%: percent effect (mortality or growth inhibition) at 200 ppm [1] | mortality at 200 ppm [6] | percent control (mortality, anti-feeding effect or growth inhibition) at 200 ppm [3] | effect (mortality or growth inhibition) at 200 ppm [4] | percent effect (mortality or growth inhibition) at 200 ppm [5]

CCN=S(=O)(c1ccc2oc(-c3ncc(-c4ncccn4)cc3S(=O)(=O)CC)nc2c1)C(F)(F)F (stereo not shown) [P35, ethylimino-[2-(3-ethylsulfonyl-5-pyrimidin-2-yl-2-pyridyl)-1,3-benzoxazol-5-yl]-oxo-(trifluoromethyl)-λ^6-sulfane]
≥ 80%: percent effect (mortality or growth inhibition) at 200 ppm [1] | percent control (mortality, anti-feeding effect or growth inhibition) at 200 ppm [3] | effect (mortality or growth inhibition) at 200 ppm [4] | percent effect (mortality or growth inhibition) at 200 ppm [5]

CCS(=O)(=O)c1cc(-c2ncccn2)cnc1-c1nc2cc(S(=N)(=O)C(F)(F)F)ccc2o1 (stereo not shown) [P36, [2-(3-ethylsulfonyl-5-pyrimidin-2-yl-2-pyridyl)-1,3-benzoxazol-5-yl]-imino-oxo-(trifluoromethyl)-λ^6-sulfane]
≥ 80%: percent effect (mortality or growth inhibition) at 200 ppm [1] | percent control (mortality, anti-feeding effect or growth inhibition) at 200 ppm [3] | effect (mortality or growth inhibition) at 200 ppm [4] | percent effect (mortality or growth inhibition) at 200 ppm [5]

CCS(=O)(=O)c1cc(-c2ncc(Cl)cn2)cnc1-c1nc2cc(S(=N)(=O)C(F)(F)F)ccc2o1 (stereo not shown) [P42, [2-[5-(5-chloropyrimidin-2-yl)-3-ethylsulfonyl-2-pyridyl]-1,3-benzoxazol-5-yl]-imino-oxo-(trifluoromethyl)-λ^6-sulfane]
≥ 80%: percent effect (mortality or growth inhibition) at 200 ppm [1] | percent control (mortality, anti-feeding effect or growth inhibition) at 200 ppm [3] | effect (mortality or growth inhibition) at 200 ppm [4] | percent effect (mortality or growth inhibition) at 200 ppm [5]

CCS(=O)(=O)c1ccc(-n2cncn2)nc1-c1nc2cc(S(=N)(=O)C(F)(F)F)ccc2n1C (stereo not shown) [P44, [2-[3-ethylsulfonyl-6-(1,2,4-triazol-1-yl)-2-pyridyl]-1-methyl-benzimidazol-5-yl]-imino-oxo-(trifluoromethyl)-λ^6-sulfane]
≥ 80%: percent effect (mortality or growth inhibition) at 200 ppm [1] | mortality at 200 ppm [6] | percent control (mortality, anti-feeding effect or growth inhibition) at 200 ppm [3] | percent effect (mortality or growth inhibition) at 200 ppm [5]

CCN=S(=O)(c1ccc2c(c1)nc(-c1nc(-n3cncn3)ccc1S(=O)(=O)CC)n2C)C(F)(F)F (stereo not shown) [P45, ethylimino-[2-[3-ethylsulfonyl-6-(1,2,4-triazol-1-yl)-2-pyridyl]-1-methyl-benzimidazol-5-yl]-oxo-(trifluoromethyl)-λ^6-sulfane]
≥ 80%: percent effect (mortality or growth inhibition) at 200 ppm [1] | mortality at 200 ppm [6] | percent control (mortality, anti-feeding effect or growth inhibition) at 200 ppm [3] | percent effect (mortality or growth inhibition) at 200 ppm [5]

CCS(=O)(=O)c1cc(Oc2ccccn2)cnc1-c1nc2cc(S(=N)(=O)C(F)(F)F)ccc2n1C (stereo not shown) [P50, [2-[3-ethylsulfonyl-5-(2-pyridyloxy)-2-pyridyl]-1-methyl-benzimidazol-5-yl]-imino-oxo-(trifluoromethyl)-λ^6-sulfane]
≥ 80%: percent effect (mortality or growth inhibition) at 200 ppm [1] | mortality at 200 ppm [6] | percent control (mortality, anti-feeding effect or growth inhibition) at 200 ppm [3] | effect (mortality or growth inhibition) at 200 ppm [4] | percent effect (mortality or growth inhibition) at 200 ppm [5]

CCN=S(=O)(c1ccc2c(c1)nc(-c1ncc(Oc3ccccn3)cc1S(=O)(=O)CC)n2C)C(F)(F)F (stereo not shown) [P51, ethylimino-[2-[3-ethylsulfonyl-5-(2-pyridyloxy)-2-pyridyl]-1-methyl-benzimidazol-5-yl]-oxo-(trifluoromethyl)-λ^6-sulfane]
≥ 80%: percent effect (mortality or growth inhibition) at 200 ppm [1] | mortality at 200 ppm [6] | percent control (mortality, anti-feeding effect or growth inhibition) at 200 ppm [3] | effect (mortality or growth inhibition) at 200 ppm [4] | percent effect (mortality or growth inhibition) at 200 ppm [5]

CCS(=O)(=O)c1cc(-c2ncc(C#N)cn2)cnc1-c1nc2cc(S(=N)(=O)C(F)(F)F)ccc2n1C (stereo not shown) [P52, 2-[5-ethylsulfonyl-6-[1-methyl-5-(trifluoromethylsulfonimidoyl)benzimidazol-2-yl]-3-pyridyl]pyrimidine-5-carbonitrile]
≥ 80%: percent effect (mortality or growth inhibition) at 200 ppm [1] | mortality at 200 ppm [6] | percent control (mortality, anti-feeding effect or growth inhibition) at 200 ppm [3] | effect (mortality or growth inhibition) at 200 ppm [4] | percent effect (mortality or growth inhibition) at 200 ppm [5]

CCN=S(=O)(c1ccc2c(c1)nc(-c1ncc(-c3ncc(C#N)cn3)cc1S(=O)(=O)CC)n2C)C(F)(F)F (stereo not drawn) [P53, 2-[5-ethylsulfonyl-6-[5-[N-ethyl-S-(trifluoromethyl)sulfonimidoyl]-1-methyl-benzimidazol-2-yl]-3-pyridyl]pyrimidine-5-carbonitrile]
≥ 80%: percent effect (mortality or growth inhibition) at 200 ppm [1] | mortality at 200 ppm [6] | percent control (mortality, anti-feeding effect or growth inhibition) at 200 ppm [3] | effect (mortality or growth inhibition) at 200 ppm [4] | percent effect (mortality or growth inhibition) at 200 ppm [5]
